The values below come from patent US7981912B2, “Indole acetic acids exhibiting CRTH2 receptor antagonism and uses thereof” (Wyeth LLC, priority 2004, dated 2011).

Experiment [1] addresses T1, human CRTH2 (Homo sapiens, UniProt Q9Y5Y4).
T1 sequence (Q9Y5Y4 1-395): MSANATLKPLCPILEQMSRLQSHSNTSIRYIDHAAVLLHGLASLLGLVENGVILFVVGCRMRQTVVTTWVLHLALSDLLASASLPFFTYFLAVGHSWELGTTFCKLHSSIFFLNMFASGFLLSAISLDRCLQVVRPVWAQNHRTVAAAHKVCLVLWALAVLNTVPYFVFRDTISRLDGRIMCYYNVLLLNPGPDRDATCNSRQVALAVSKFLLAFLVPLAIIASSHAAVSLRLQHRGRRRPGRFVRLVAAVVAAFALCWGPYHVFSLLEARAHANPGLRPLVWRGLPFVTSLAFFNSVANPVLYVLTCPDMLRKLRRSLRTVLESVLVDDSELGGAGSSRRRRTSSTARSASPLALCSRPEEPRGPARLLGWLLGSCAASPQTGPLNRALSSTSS
Description: CRTH2 fluorescent imaging assay (intracellular calcium, antagonist mode). Type of experiment: cell-based. Also noted: expressed in transfected cells; host or cells: HT1080-hCRTH2. To be noted: HT1080-hCRTH2 cells; block of calcium increase caused by 500 nM PGD2. The procedure:
The ability of the disclosed compounds to act as agonists for the hCRTH2 receptor was determined by their ability to cause increases in intracellular calcium via binding to the CRTH2 receptor.
Assays were performed on HEK 293EBNA-hCRTH2 cells that had been grown in DMEM media containing 10% FBS, […] puromycin and 1% penicillin/streptomycin/glutamine (PSG) at 37° C. in 5% CO2 or on HT1080-hCRTH2 cells (a HT1080 cell line stably expressing human CRTH2) that had been grown in alphaMEM media containing 10% FBS, 500 μg/ml hygromycin, 200 nM methotrexate and 1% PSG at 37° C. in 5% CO2.
For the assay, HEK 293EBNA-hCRTH2 cells or HT1080-hCRTH2 cells were grown to approximately 90% confluency and then dislodged from the plate with Trypsin-EDTA, resuspended in DMEM media, seeded in 384 well plates at 2×10^4 cells per well and incubated overnight at 37° C. The cells were loaded with a calcium sensing dye by removing the growth media and replacing it with 30 μL of dye loading Ringer's buffer (136 mM […], 5.4 mM D-Glucose, 20 mM Hepes pH 7.4, 2.1 mM MgCl2, 0.8 mM CaCl2, 0.2% BSA with 1× Calcium3Dye (Molecular Devices) and 2.5 mM Probenecid (Sigma)) per well. The cells were incubated at 37° C. for 1 hour to allow the dye to enter the cells. Compounds were serially diluted in DMSO and then diluted to 4× their final concentration with Ringer's buffer. The compounds were added to a 384 well plate in quadruplicate. In addition to test compounds, several wells contained Ringer's buffer with DMSO. These wells serve as control wells. 10 μL was transferred from compound/control plate to the plate containing cells loaded with dye by a fluorescent imaging plate reader (Molecular Devices). The fluorescence was measured every 4 seconds for 4 minutes. These measurements indicated the level of intracellular calcium. Increases in fluorescence relative to wells containing buffer only indicated an agonist effect of the compound. Measurement at various compound concentrations allowed one to determine the EC50 for these compounds. Following the 4 minute incubation with compound, 20 μL of Ringer's buffer with either 10 nM or 500 nM PGD2 (approximate EC75 for PGD2 in HEK 293EBNA-hCRTH2 cells and HT1080-hCRTH2 cells, respectively) was added to the wells. Inhibition by the compounds of the calcium response due to antagonism of PGD2 action on CRTH2 is reflected by a decrease in fluorescent signal relative to wells containing no compound. The fluorescence was measured every 2 seconds for 10 seconds before addition of PGD2 and every 2 seconds for 110 seconds following addition. Measurement at various compound concentrations allowed one to determine the IC50 for these compounds. EC50 and IC50 values were determined from the experimental results by nonlinear regression using the Prism 4.0 software.

Experiment [2] concerns the target T1, human CRTH2. Description: CRTH-2 binding assay (scintillation proximity assay, inhibition of 3H-PGD2 binding). Also noted: expressed in transfected cells; host or cells: HEK 293EBNA-hCRTH2 (membrane preparation). As to conditions: inhibition of 3H-PGD2 (3.6 nM) binding to HEK 293EBNA-hCRTH2 membranes; Ki calculated from IC50. The essentials:
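Membranes from HEK 293EBNA cells stably expressing human CRTH2 (~20 μg protein/100 μL) with SPA beads and 3.6 nM 3H-PGD2 in 10 mM Hepes pH 7.4, 1 mM EDTA, 10 mM MnCl2, glycerol, 2 h at room temperature, seven compound concentrations in triplicate. Nonspecific binding defined with indomethacin; IC50 converted to Ki using Kd and radioligand concentration.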

pIC50, pKi: −log10 of the molar value.

In the case of `Cc1c(-c2nn(Cc3ccccc3)c(=O)c3ccccc23)c2cc(Cl)ccc2n1CC(=O)O` [Example 16, [3-(3-Benzyl-4-oxo-3,4-dihydro-phthalazin-1-yl)-5-chloro-2-methyl-indol-1-yl]-acetic acid], the negative-log IC50 (pIC50) at human CRTH2 [1] is 7.72. Moreover, the pKi at human CRTH2 [2] is more than 7.00.
For `Cc1c(-c2nn(Cc3ccc(F)cc3)c(=O)c3ccccc23)c2cc(Cl)ccc2n1CC(=O)O` [Example 24, {5-Chloro-3-[3-(4-fluoro-benzyl)-4-oxo-3,4-dihydro-phthalazin-1-yl]-2-methyl-indol-1-yl}-acetic acid], on human CRTH2 [1], the negative-log IC50 (pIC50) is 7.22. For the same compound, the pKi at human CRTH2 [2] is more than 7.00.
The corresponding values for `Cc1onc(-c2ccccc2)c1CN1C(c2c(C)n(CC(=O)O)c3ccc(Cl)cc23)c2ccccc2S1(=O)=O` (stereo not shown) [Example 61, {5-Chloro-2-methyl-3-[2-(5-methyl-3-phenyl-isoxazol-4-ylmethyl)-1,1-dioxo-2,3-dihydro-1H-1λ^6-benzo[d]isothiazol-3-yl]-indol-1-yl}-acetic acid] are 6.77 and more than 7.00.
Take `Cc1noc(C)c1CN1C(c2c(C)n(CC(=O)O)c3ccccc23)c2ccc(F)cc2S1(=O)=O` (stereo not shown) [Example 62, {3-[2-(3,5-Dimethyl-isoxazol-4-ylmethyl)-6-fluoro-1,1-dioxo-2,3-dihydro-1H-1λ^6-benzo[d]isothiazol-3-yl]-2-methyl-indol-1-yl}-acetic acid]: the pIC50 at human CRTH2 [1] is 7.66. In addition, the negative logarithm of the Ki (pKi) on human CRTH2 [2] was more than 7.00.
Regarding `COc1ccc(CN2N=C(c3c(C)n(CC(=O)O)c4ccc(F)cc34)c3ccccc3S2(=O)=O)cc1` [Example 80, {3-[2-(4-Methoxy-benzyl)-1,1-dioxo-1,2-dihydro-1λ^6-benzo[e][1,2,3]thiadiazin-4-yl]-5-fluoro-2-methyl-indol-1-yl}-acetic acid], the negative logarithm of the Ki (pKi) at human CRTH2 [2] is more than 7.00.
Regarding `Cc1c(C2=NN(Cc3ccccc3F)S(=O)(=O)c3ccccc32)c2cc(F)ccc2n1CC(=O)O` [Example 81, {3-[2-(2-Fluoro-benzyl)-1,1-dioxo-1,2-dihydro-1λ^6-benzo[e][1,2,3]thiadiazin-4-yl]-5-fluoro-2-methyl-indol-1-yl}-acetic acid], on human CRTH2 [2], the negative-log Ki (pKi) is more than 7.00.
Take `Cc1c(C2=NN(Cc3cccc(F)c3)S(=O)(=O)c3ccccc32)c2cc(F)ccc2n1CC(=O)O` [Example 82, {3-[2-(3-Fluoro-benzyl)-1,1-dioxo-1,2-dihydro-1λ^6-benzo[e][1,2,3]thiadiazin-4-yl]-5-fluoro-2-methyl-indol-1-yl}-acetic acid]: the pKi on human CRTH2 [2] is more than 7.00.
Take `Cc1c(C2=NN(Cc3ccc(OC(F)(F)F)cc3)S(=O)(=O)c3ccccc32)c2cc(F)ccc2n1CC(=O)O` [Example 84, {3-[2-(4-Trifluoromethoxy-benzyl)-1,1-dioxo-1,2-dihydro-1λ^6-benzo[e][1,2,3]thiadiazin-4-yl]-5-fluoro-2-methyl-indol-1-yl}-acetic acid]: the negative-log Ki (pKi) on human CRTH2 [2] is more than 6.00.
Still for that read-out and setting: as for `Cc1c(C2=NN(Cc3cccc(C(F)(F)F)c3)S(=O)(=O)c3ccccc32)c2cc(F)ccc2n1CC(=O)O` [Example 85, {3-[2-(3-Trifluoromethyl-benzyl)-1,1-dioxo-1,2-dihydro-1λ^6-benzo[e][1,2,3]thiadiazin-4-yl]-5-fluoro-2-methyl-indol-1-yl}-acetic acid], the figure is more than 6.00; as for `Cc1c(C2=NN(C(C)c3ccccc3)S(=O)(=O)c3ccccc32)c2cc(F)ccc2n1CC(=O)O` (stereo not shown) [Example 86, {3-[2-(1-phenyl-ethyl)-1,1-dioxo-1,2-dihydro-1λ^6-benzo[e][1,2,3]thiadiazin-4-yl]-5-fluoro-2-methyl-indol-1-yl}-acetic acid], more than 7.00; as for `Cc1c(C2=NN(CCc3ccccc3)S(=O)(=O)c3ccccc32)c2cc(F)ccc2n1CC(=O)O` [Example 87, {3-[2-phenethyl-1,1-dioxo-1,2-dihydro-1λ^6-benzo[e][1,2,3]thiadiazin-4-yl]-5-fluoro-2-methyl-indol-1-yl}-acetic acid], more than 6.00.
The same measure, in the same setting: the value for `Cc1c(C2=NN(CCOc3ccccc3)S(=O)(=O)c3ccccc32)c2cc(F)ccc2n1CC(=O)O` [Example 88, {3-[2-(2-Phenoxy-ethyl)-1,1-dioxo-1,2-dihydro-1λ^6-benzo[e][1,2,3]thiadiazin-4-yl]-5-fluoro-2-methyl-indol-1-yl}-acetic acid] was more than 6.00; that for `Cc1c(C2=NN(CCOc3ccc(Cl)cc3)S(=O)(=O)c3ccccc32)c2cc(F)ccc2n1CC(=O)O` [Example 89, (3-{2-[2-(4-Chloro-phenoxy)-ethyl]-1,1-dioxo-1,2-dihydro-1λ^6-benzo[e][1,2,3]thiadiazin-4-yl}-5-fluoro-2-methyl-indol-1-yl)-acetic acid] was more than 6.00; that for `Cc1noc(C)c1CN1N=C(c2c(C)n(CC(=O)O)c3ccc(F)cc23)c2ccccc2S1(=O)=O` [Example 90, {3-[2-(3,5-Dimethyl-isoxazol-4-ylmethyl)-1,1-dioxo-1,2-dihydro-1λ^6-benzo[e][1,2,3]thiadiazin-4-yl]-5-fluoro-2-methyl-indol-1-yl}-acetic acid] was more than 7.00.
With `CCN1N=C(c2c(C)n(CC(=O)O)c3ccc(F)cc23)c2ccccc2S1(=O)=O` [Example 91, [3-(2-Ethyl-1,1-dioxo-1,2-dihydro-1λ^6-benzo[e][1,2,3]thiadiazin-4-yl)-5-fluoro-2-methyl-indol-1-yl]-acetic acid], the pKi at human CRTH2 [2] was more than 7.00.
Turning to `CCCN1N=C(c2c(C)n(CC(=O)O)c3ccc(F)cc23)c2ccccc2S1(=O)=O` [Example 92, [3-(2-Propyl-1,1-dioxo-1,2-dihydro-1λ^6-benzo[e][1,2,3]thiadiazin-4-yl)-5-fluoro-2-methyl-indol-1-yl]-acetic acid], the pKi on human CRTH2 [2] is more than 7.00.
Consider `Cc1c(C2=NN(C(C)C)S(=O)(=O)c3ccccc32)c2cc(F)ccc2n1CC(=O)O` [Example 93, [3-(2-Isopropyl-1,1-dioxo-1,2-dihydro-1λ^6-benzo[e][1,2,3]thiadiazin-4-yl)-5-fluoro-2-methyl-indol-1-yl]-acetic acid], for which, at human CRTH2 [2], the pKi was more than 7.00.
With `Cc1c(C2=NN(C3CCCCC3)S(=O)(=O)c3ccccc32)c2cc(F)ccc2n1CC(=O)O` [Example 94, [3-(2-Cyclohexyl-1,1-dioxo-1,2-dihydro-1λ^6-benzo[e][1,2,3]thiadiazin-4-yl)-5-fluoro-2-methyl-indol-1-yl]-acetic acid], the negative logarithm of the Ki (pKi) at human CRTH2 [2] was more than 7.00.
